Experimental data reported in ChEMBL document CHEMBL1137005 (Bioorg Med Chem Lett, 2009).
Activity calls are given as the source filed them. No cut-off for these calls is given here.

Key:
Cytochrome P450 2C9 = Cytochrome P450 2C9 (Homo sapiens, UniProt P11712); assay: Inhibition of CYP2C9; type: ADME
[1] = biological target: T1, Bifunctional epoxide hydrolase 2 (Homo sapiens, UniProt P34913); assay: Inhibition of human soluble epoxide hydrolase
T1 sequence (P34913 whole entry): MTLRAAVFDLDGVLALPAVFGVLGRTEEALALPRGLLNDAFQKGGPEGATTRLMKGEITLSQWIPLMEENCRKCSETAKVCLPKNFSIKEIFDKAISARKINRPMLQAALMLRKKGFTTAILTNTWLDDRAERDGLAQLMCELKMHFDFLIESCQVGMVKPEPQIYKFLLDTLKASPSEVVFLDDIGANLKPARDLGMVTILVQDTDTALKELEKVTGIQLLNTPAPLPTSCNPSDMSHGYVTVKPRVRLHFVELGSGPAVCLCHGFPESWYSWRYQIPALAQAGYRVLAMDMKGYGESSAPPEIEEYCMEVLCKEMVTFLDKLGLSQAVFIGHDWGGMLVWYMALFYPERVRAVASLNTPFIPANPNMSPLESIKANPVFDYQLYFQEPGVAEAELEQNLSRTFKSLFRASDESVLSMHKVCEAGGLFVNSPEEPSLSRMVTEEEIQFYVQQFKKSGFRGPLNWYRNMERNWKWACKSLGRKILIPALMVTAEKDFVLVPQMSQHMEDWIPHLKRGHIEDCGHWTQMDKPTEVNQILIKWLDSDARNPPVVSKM

Blood = assay: Inhibition of DHET production in rat whole blood at 1 uM after 1 hr; type: functional; set-up: Activity: scale not given: the % may be the effect or the level left
[2] = biological target: T1, Bifunctional epoxide hydrolase 2; assay: Inhibition of human soluble epoxide hydrolase in HEK293 cells assessed as DHET production; type: cell-based
[3] = Half life in rat at 1 mg/kg, iv and 2 mg/kg, po; type: ADME, organism-based; settings: in vivo
Cytochrome P450 3A4 = Cytochrome P450 3A4 (Homo sapiens, UniProt P08684); assay: Inhibition of CYP3A4; type: ADME
[4] = biological target: T2, Bifunctional epoxide hydrolase 2 (Rattus norvegicus, UniProt P80299); assay: Inhibition of rat soluble epoxide hydrolase
T2 sequence (P80299 whole entry): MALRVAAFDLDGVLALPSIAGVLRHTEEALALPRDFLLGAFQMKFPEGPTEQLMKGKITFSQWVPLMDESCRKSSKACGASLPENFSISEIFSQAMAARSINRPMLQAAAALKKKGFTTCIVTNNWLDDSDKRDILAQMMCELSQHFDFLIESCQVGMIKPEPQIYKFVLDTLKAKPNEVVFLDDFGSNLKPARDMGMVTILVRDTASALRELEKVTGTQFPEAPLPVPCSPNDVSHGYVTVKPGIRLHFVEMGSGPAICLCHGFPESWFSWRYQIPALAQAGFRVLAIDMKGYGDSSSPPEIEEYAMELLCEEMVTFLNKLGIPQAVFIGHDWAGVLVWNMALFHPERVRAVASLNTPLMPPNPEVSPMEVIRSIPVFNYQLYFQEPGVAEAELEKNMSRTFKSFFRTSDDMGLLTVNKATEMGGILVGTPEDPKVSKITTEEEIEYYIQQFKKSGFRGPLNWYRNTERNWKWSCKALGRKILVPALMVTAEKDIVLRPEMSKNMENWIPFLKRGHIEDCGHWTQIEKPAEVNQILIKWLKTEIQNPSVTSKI

Epoxide hydrolase 1 = biological target: T3, Epoxide hydrolase 1 (Homo sapiens, UniProt P07099); assay: Inhibition of human microsomal epoxide hydrolase
T3 sequence (P07099 whole entry): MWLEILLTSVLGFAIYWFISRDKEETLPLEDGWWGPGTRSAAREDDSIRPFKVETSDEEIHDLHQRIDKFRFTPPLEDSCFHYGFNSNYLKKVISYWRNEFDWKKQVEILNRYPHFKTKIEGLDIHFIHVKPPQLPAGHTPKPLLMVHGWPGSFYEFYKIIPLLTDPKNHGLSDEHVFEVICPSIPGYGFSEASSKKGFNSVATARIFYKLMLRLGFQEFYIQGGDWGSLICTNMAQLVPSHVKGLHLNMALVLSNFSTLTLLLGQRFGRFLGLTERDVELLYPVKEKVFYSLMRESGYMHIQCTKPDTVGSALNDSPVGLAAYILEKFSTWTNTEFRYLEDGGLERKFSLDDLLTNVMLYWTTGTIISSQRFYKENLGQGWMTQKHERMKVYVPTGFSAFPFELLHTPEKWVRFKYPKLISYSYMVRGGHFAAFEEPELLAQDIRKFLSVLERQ

[5] = Bioavailability in rat at 1 mg/kg, iv and 2 mg/kg, po; type: ADME, organism-based; settings: in vivo
[6] = biological target: Sodium channel protein type 5 subunit alpha (Homo sapiens, UniProt Q14524); assay: Inhibition of Voltage-gated sodium channel subunit alpha Nav1.5
[7] = Volume of distribution at steady state in rat at 1 mg/kg, iv and 2 mg/kg, po; type: ADME, organism-based; settings: in vivo, read-out: Vdss
Cytochrome P450 2D6 = Cytochrome P450 2D6 (Homo sapiens, UniProt P10635); assay: Inhibition of CYP2D6; type: ADME
[8] = Binding affinity to […] channel diltiazem binding site
[9] = Clearance in rat at 1 mg/kg, iv and 2 mg/kg, po; type: ADME, organism-based; settings: in vivo
[10] = Inhibition of potassium channel IKr
Rattus norvegicus [11] = assay: Ex vivo inhibition of DHET production in spontaneously hypertensive rat plasma at 50 mg/kg, po after 0.5 to 6 hrs; type: functional
[12] = Plasma concentration in spontaneously hypertensive rat plasma at 300 mg/kg, after 2 hrs; type: ADME, organism-based; set-up: dose 300 mg/kg
Rattus norvegicus [13] = assay: Plasma concentration in spontaneously hypertensive rat plasma at 50 mg/kg, po; type: ADME, organism-based; set-up: dose 50 mg/kg, route oral; settings: in vivo
[14] = Plasma concentration in spontaneously hypertensive rat plasma at 300 mg/kg, after 5 hrs; type: ADME, organism-based; set-up: dose 300 mg/kg
[15] = Plasma concentration in spontaneously hypertensive rat plasma at 300 mg/kg, after 24 hrs; type: ADME, organism-based; set-up: dose 300 mg/kg
Rattus norvegicus [16] = assay: Antihypertensive activity in spontaneously hypertensive rat assessed as change in systolic blood pressure at 300 mg/kg, po; type: functional, organism-based; set-up: dose 300 mg/kg; settings: Artery
Rattus norvegicus [17] = assay: Antihypertensive activity in spontaneously hypertensive rat assessed as change in diastolic blood pressure at 300 mg/kg, po; type: functional, organism-based; set-up: dose 300 mg/kg; settings: Artery
Rattus norvegicus [18] = assay: Antihypertensive activity in spontaneously hypertensive rat assessed as change in heart rate at 300 mg/kg, po; type: functional, organism-based; set-up: dose 300 mg/kg
Rattus norvegicus [19] = assay: Antihypertensive activity in spontaneously hypertensive rat assessed as change in pulse pressure at 300 mg/kg, po; type: functional, organism-based; set-up: dose 300 mg/kg

Chain of Cytochrome P450 3A4 (P08684 whole entry): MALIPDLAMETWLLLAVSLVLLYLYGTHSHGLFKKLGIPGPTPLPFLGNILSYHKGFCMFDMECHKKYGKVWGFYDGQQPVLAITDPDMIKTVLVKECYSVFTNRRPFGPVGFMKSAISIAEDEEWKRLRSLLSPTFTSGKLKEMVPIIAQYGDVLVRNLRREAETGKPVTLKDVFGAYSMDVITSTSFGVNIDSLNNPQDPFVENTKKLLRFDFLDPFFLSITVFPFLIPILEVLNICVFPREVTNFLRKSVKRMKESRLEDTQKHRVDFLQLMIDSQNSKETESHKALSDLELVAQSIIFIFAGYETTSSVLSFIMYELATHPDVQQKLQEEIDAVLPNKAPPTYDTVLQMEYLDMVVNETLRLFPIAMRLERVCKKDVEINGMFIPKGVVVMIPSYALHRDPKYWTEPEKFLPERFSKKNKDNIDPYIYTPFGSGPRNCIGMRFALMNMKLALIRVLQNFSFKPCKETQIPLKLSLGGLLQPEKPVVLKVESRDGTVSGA
Chain of Cytochrome P450 2C9 (P11712 whole entry): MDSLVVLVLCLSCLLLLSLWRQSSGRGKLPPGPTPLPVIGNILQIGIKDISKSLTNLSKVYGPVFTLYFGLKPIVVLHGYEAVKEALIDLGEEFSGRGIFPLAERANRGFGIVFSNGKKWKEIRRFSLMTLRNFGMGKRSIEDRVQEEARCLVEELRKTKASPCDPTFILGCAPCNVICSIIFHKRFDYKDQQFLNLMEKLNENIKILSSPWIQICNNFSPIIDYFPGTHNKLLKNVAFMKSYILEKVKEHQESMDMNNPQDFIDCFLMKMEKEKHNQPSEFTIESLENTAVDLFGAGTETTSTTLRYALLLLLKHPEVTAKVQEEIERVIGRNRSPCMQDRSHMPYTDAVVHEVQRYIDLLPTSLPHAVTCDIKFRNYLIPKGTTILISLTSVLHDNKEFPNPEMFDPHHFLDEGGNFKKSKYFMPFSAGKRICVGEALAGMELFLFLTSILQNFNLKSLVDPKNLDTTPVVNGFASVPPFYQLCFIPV
Chain of Sodium channel protein type 5 subunit alpha (Q14524 whole entry): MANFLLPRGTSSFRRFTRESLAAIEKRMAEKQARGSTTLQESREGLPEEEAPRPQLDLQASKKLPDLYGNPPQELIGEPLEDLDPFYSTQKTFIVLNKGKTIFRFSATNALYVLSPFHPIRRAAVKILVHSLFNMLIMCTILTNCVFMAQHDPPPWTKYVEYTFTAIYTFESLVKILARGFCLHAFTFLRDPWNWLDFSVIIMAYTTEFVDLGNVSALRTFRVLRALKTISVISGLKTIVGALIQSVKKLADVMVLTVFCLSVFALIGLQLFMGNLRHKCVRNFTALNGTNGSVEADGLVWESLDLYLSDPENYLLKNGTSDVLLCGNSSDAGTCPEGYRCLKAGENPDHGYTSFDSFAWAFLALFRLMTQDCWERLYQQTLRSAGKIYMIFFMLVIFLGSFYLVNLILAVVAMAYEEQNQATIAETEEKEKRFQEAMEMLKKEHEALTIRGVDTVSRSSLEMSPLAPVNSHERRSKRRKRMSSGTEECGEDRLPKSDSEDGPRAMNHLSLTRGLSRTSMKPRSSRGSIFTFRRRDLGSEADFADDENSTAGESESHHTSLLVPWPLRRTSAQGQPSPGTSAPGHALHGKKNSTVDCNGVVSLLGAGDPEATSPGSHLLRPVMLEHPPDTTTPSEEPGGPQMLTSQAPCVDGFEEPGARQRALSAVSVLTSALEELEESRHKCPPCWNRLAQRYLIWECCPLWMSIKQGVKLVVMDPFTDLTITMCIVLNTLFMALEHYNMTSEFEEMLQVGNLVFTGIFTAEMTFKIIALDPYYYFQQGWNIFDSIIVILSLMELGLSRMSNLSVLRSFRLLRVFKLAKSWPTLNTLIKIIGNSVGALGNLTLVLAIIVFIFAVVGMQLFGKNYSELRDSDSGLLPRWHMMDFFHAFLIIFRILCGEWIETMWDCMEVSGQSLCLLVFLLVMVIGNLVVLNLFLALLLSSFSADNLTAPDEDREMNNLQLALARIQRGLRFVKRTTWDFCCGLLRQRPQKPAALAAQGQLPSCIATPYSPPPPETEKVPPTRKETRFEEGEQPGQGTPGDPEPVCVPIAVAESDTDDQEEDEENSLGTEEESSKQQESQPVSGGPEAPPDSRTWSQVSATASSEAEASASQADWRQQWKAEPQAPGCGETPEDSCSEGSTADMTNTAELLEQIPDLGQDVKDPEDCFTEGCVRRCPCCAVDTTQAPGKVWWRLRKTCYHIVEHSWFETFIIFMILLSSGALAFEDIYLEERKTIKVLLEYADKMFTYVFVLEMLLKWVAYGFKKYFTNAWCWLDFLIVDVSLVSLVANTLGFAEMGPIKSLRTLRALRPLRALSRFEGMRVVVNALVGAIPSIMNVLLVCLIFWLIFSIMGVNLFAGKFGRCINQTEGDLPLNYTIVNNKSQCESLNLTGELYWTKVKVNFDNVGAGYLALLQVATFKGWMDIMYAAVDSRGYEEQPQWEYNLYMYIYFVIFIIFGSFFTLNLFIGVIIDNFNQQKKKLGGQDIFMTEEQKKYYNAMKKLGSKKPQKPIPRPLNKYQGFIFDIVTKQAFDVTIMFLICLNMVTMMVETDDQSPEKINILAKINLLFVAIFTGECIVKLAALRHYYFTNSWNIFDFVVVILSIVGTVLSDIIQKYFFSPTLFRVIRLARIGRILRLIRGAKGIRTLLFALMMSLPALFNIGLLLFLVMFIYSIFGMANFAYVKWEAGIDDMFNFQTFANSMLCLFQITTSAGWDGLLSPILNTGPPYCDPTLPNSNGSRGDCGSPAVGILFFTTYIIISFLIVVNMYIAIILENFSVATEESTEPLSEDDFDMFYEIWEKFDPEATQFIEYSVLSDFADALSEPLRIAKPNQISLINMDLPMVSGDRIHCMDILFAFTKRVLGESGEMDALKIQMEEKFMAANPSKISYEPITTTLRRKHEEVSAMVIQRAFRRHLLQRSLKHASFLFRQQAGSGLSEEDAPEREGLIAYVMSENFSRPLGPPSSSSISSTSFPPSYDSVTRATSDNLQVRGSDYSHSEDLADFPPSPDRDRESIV
Chain of Cytochrome P450 2D6 (P10635 whole entry): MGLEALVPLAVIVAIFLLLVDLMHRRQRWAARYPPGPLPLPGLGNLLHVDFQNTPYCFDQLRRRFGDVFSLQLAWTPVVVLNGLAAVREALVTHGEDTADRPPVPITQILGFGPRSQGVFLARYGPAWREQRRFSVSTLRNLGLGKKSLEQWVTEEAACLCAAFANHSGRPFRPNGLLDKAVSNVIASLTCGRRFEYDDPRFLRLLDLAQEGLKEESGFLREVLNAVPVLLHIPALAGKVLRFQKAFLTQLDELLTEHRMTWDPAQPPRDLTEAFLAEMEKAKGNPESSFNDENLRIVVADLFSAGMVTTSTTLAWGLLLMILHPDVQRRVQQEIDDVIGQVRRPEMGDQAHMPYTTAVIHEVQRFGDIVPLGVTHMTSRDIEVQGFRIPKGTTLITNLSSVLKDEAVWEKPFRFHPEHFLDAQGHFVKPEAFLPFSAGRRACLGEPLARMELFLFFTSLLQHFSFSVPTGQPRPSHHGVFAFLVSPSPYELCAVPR

`CS(=O)(=O)c1ccc2c(c1)CCC1(CCN(C(=O)c3ccc(C(F)(F)F)cc3)CC1)O2` gave an IC50 (Cytochrome P450 2C9) of 7.6 µM, an IC50 [1] of 0.002 µM and an Activity (Blood) of 66%. For the same compound, the IC50 [2] was < 0.001 µM, the half-life [3] was 18 h and the IC50 (Cytochrome P450 3A4) was > 10 µM. The IC50 [4] was 0.019 µM, the IC50 (Epoxide hydrolase 1) was > 100 µM and the bioavailability [5] was 61%. For the same compound, the IC50 [6] was > 10 µM, the Vd [7] was 1.6 L/kg and the IC50 (Cytochrome P450 2D6) was > 10 µM. For the same compound, the IC50 [8] was > 30 µM, the clearance [9] was 0.9 mL/min/kg and the IC50 [10] was 25 µM.
With `O=C1CC2(CCN(C(=O)N[C@H]3C[C@@H]3c3ccccc3)CC2)Oc2ccccc21` (racemic) [listing 1 of 2 here] the inhibition in vivo at 50 mg/kg (Rattus norvegicus [11]) was > 95%, the Activity (Blood) was 8.6% and the half-life [3] was 1.5 h. It also gave a concentration at 2 h [12] of 3600 nM, a bioavailability [5] of 61% and a concentration (Rattus norvegicus [13]) of 800 nM. For the same compound, the concentration at 5 h [14] was 2700 nM, the Vd [7] was 3.1 L/kg and the concentration at 24 h [15] was 1700 nM. For the same compound, the clearance [9] was 47 mL/min/kg.
With `O=C1CC2(CCN(C(=O)N[C@H]3C[C@@H]3c3ccccc3)CC2)Oc2ccccc21` (racemic) [listing 2 of 2 here] the Activity (Rattus norvegicus [16]) was “inactive”, the Activity (Rattus norvegicus [17]) was “inactive” and the Activity (Rattus norvegicus [18]) was “inactive”. For the same compound, the Activity (Rattus norvegicus [19]) was “inactive”.
